# From patent US10590056B2, “ERR modulators and uses thereof” (CITY OF HOPE, priority 2017, dated 2020)
# Key:
# Human ERα = molecular target: T1, Human ERα (Homo sapiens, UniProt P03372); experiment: Full-length ERα, estrogen receptor responsive reporter assay in CV-1 cells; format: cell-based; conditions: selectivity evaluation
# T1 construct: Human ERα and ERβ were examined as full-length proteins using an estrogen receptor responsive reporter construct; expressed in transfected cells; host or cells: CV-1 cells, cytomegalovirus-driven expression vectors
# T1 sequence (P03372 1-595): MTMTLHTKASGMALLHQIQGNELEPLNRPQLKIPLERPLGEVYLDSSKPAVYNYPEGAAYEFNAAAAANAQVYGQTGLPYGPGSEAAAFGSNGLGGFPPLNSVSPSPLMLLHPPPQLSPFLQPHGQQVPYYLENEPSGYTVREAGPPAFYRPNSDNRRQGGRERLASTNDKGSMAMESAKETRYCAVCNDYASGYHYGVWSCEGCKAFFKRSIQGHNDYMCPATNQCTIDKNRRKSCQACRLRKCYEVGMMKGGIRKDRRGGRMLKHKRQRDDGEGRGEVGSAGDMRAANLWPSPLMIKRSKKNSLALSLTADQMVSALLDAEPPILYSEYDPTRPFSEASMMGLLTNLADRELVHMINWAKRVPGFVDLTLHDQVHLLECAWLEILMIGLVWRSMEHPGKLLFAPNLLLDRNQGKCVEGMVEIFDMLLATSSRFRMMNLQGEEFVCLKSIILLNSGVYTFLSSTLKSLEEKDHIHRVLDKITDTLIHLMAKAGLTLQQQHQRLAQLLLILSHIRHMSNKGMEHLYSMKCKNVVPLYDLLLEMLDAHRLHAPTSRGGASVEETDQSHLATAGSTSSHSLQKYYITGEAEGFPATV
# Procedure: Cell based transactivation assays were performed in CV-1 cells as described.^49 ERR activity was assayed with a GAL4 reporter construct and fusion proteins containing the ligand binding domains of human ERRα, human ERRβ and mouse ERRγ linked to the DNA binding domain of yeast GAL4. Human ERα and ERβ were examined as full-length proteins using an estrogen receptor responsive reporter construct. Reporter constructs (300 ng/10^5 cells) and cytomegalovirus-driven expression vectors (20-50 ng/10^5 cells) were added as indicated along with CMX-β-gal (500 ng/10^5 cells) as an internal control. Cells were transiently transfected by Lipofectamine as described.^56 Cells were incubated with DNA complexed liposomes for 2 hours and subsequently treated for approximately 45 hr with phenol red free DMEM FBS containing the indicated compounds. After exposure to ligand, the cells were harvested and assayed for luciferase and β-galactosidase activity. All points were assayed in triplicate and varied by less than 15%. Each experiment was repeated three or more times with similar results. Fold activation is reported.
# C2C12 myotubes = experiment: Fatty acid oxidation assay (3H-palmitate-BSA) in C2C12 myotubes; format: cell-based; conditions: 100 nM, 48 hours, compared to vehicle-treated controls
# Procedure: (§1) FIGS. 7A-7C. […] FIG. 7A. 293 HEK cells expressing either GFP or ERRγ via adenoviral transduction were treated with either vehicle (DMSO) or 100 nM DY40 for 48 hours. Expression of endogenous SHP (NR0B2) was quantitated by real-time PCR. Values are normalized to β-actin transcript and reported relative to GFP untreated levels (=1.0). Data represent mean±S.E.M. for 3 independent trials. FIG. 7B. C2C12 myotubes were treated with either vehicle or 100 nM DY40 for 48 hours. Expression of endogenous SHP was measured by quantitative real-time PCR. Values are normalized to 36b4 (Rp1p0) transcript and reported relative to expression in DMSO treated cells (=1.0). Data represent mean±S.E.M. for 3 independent trials. *, P<0.05 DMSO versus DY40 treated values. FIG. 7C. C2C12 myotubes were treated with either vehicle or 100 nM DY40 for 48 hours. Oxidation of ^3H-palmitate-BSA was measured as described in Methods. […]
# The analysis of fatty acid oxidation rates in cells was performed as previously described.^57 Fatty acid ^3H-[9,10]-palimitic acid was complexed to fatty acid-free BSA and this complex was added to 30 uM unlabeled palmitate. […] The substrate was removed and radiolabeled aqueous metabolites (^3H2O) released to the media were measured by scintillation counting. The calculated rates were normalized to total cellular protein.
# [1] = tested on: ERRγ target gene SHP (NR0B2); experiment: Endogenous SHP (NR0B2) expression by real-time PCR in 293 HEK cells expressing ERRγ via adenovirus; format: cell-based, human; conditions: 293HEK over-expressing ERRγ, 100 nM, 48 hours
# Procedure: as §1, with “Methods. Values are normalized to total cellular protein and reported relative to expression in DMSO treated cells (=1.0).” for “Methods.”
# (§2) Validation of DY40 effects on endogenous ERRγ target gene expression and metabolism in cell based models. […] We also evaluated the effects of the compound in C2C12 myotubes that have significant endogenous ERRγ expression. […]
# (§3) Experimental transcript levels were normalized to 36B4 ribosomal RNA analyzed in separate reactions. […]
# ERRγ target gene SHP = experiment: Endogenous SHP transcript by real-time PCR in C2C12 myotubes; format: cell-based, mouse; conditions: 100 nM, 48 hours, vs DMSO
# Procedure: as §1, with “Methods. Values are normalized to total cellular protein and reported relative to expression in DMSO treated cells (=1.0).” for “Methods.”
# as §2, §3
structure (smiles),measurement,setting,value
"CC(=O)Oc1ccc(/C(=C(/c2ccccc2)C(C)C)c2ccc(OCCN(C)C)cc2)cc1 [Compound 4a, (E)-4-{1-[4-(2-dimethylamino-ethoxy)-phenyl]-3-methyl-2-phenyl-but-1-enyl}-phenyl acetate]","ERα antagonist activity, in words",Human ERα,remains an antagonist potency of ERα
same,change in palmitate oxidation rates,C2C12 myotubes,−42%
same,ERRγ mediated induction of SHP transcript,[1],completely blocked
same,repression of endogenous SHP transcript levels,ERRγ target gene SHP,~60%
